Laboratory results published in patent publication US8865775B2, “Anti-inflammatory agent and cancer-preventive agent comprising canolol or prodrug thereof and pharmaceutical, cosmetic and food comprising the same” (priority 2004, dated 2014).

Legend:
[1] = test system: gastric carcinoma in Mongolian gerbils; assay: Suppression of gastric carcinogenesis in gerbils infected with H. pylori and treated with MNU; assay type: in vivo
Source text: They were divided into two groups: one was fed with AIN-93G diet for mice containing 0.1% of canolol (“canolol-fed group”); the other was fed with the same diet compositions without canolol. […] Ten gerbils per group were examined.
Thin slices obtained from the paraffin blocks were examined with HE (hematoxyline eosin) staining under microscope.

[2] = Half-life in the culture medium; assay type: physicochemical
Source text: (§1) At the inflammatory site, peroxynitrite (ONOO^−) is excessively generated as a result of inflammatory reaction, and toxic effect thereof to living cells is one of the cause of pathogenesis. It was anticipated that canolol would exert protective effects against said toxicity of ONOO^− to cultured cells.

[3] = test system: Mongolian gerbils infected with Helicobacter pylori ATCC 43504; assay: Suppression of gastritis in Mongolian gerbils infected with H. pylori and given MNU (pathology of excised stomach); assay type: in vivo; settings: diet containing 0.1% canolol for 12 weeks; vs diet without canolol
Source text: (§2) The six-week old Mongolian gerbils were given drinking water with 10 ppm of MNU (a carcinogen N-methylnitrosourea) for one week followed by oral infection with Helicobacter pylori ATCC 43504 strain, or were orally infected with 1×10^8 CFU of H. pylori and 10 ppm of MNU were then given for one week. They were divided into two groups: one was fed with AIN-93G diet for mice containing 0.1% of canolol (“canolol-fed group”); the other was fed with the same diet compositions without canolol. The experiment was continued for up to 52 weeks (X. Cao et al, Jpn. J. Cancer Res., 93, 1293-1298 (2002), N. Shimizu, et al, Cancer Res., 60, 1512-1514 (2000)). Ten gerbils per group were examined.

[4] = test system: 8-oxodeoxyguanosine (8-OHdG); assay: 8-OHdG production in gastric specimens, fluorescent antibody staining; assay type: in vivo, Mongolian gerbils; settings: after 12 weeks
Source text: as §2
(§3) 8-OHdG is one of the markers of inflammatory disorders that are generated as a result from a reaction of reactive oxygen species with DNA, said reactive oxygen species being derived from inflammatory cells in vivo. The amount of 8-OHdG produced was studied under similar conditions as Example (1) using a conventional fluorescent antibody staining method with the anti-8-OHdG antibody against excised gastric specimens of each group after 12 weeks.

[5] = test system: Helicobacter pylori; assay: H. pylori count in mid-stomach tissues of infected gerbils; assay type: in vivo; settings: after 12 weeks
Source text: as §2, §3

[6] = test system: stomach tissues of gerbils infected with H. pylori; assay: Infiltration of neutrophils and hyperplasia in stomach tissues, hematoxylin-eosin staining; assay type: in vivo, Mongolian gerbils; settings: 12 weeks
Source text: as §2
Specimens of Example (1) were prepared 12 weeks after administration. Stomach specimens were prepared and examined under microscope after conventional hematoxylin-eosin staining.

[7] = test system: cycloxygenase-2 (COX-2); assay: Induction of COX-2 in gastric lesions infected with H. pylori, immunostaining; assay type: in vivo, Mongolian gerbils; settings: immunostaining quantification, 12 weeks, n = 10
Source text: as §2
(§4) The expression levels of both enzymes were quantified by means of enzyme antibody using the specimens of Example (1) prepared 12 weeks after administration according to Example (2) . Both COX-2 and iNOS induced during inflammation are typical enzymes to onset an inflammation reaction. Namely, COX-2 produces prostanoid inflammatory mediators such as prostaglandin E2, and iNOS produces nitric oxide (NO), where these mediators and NO evokes inflammation. Both superoxide (O2^−) and NO produced at the site of inflammation immediately react with each other and form more reactive peroxynitrite (ONOO^−) (described later).

[8] = test system: inducible form of NO synthase (iNOS); assay: Induction of iNOS in gastric lesions infected with H. pylori, immunostaining; assay type: in vivo, Mongolian gerbils; settings: immunostaining quantification, 12 weeks, n = 10
Source text: as §2, §4

[9] = test system: NO production from macrophages; assay: Suppression of NO production from LPS + IFN-γ treated peritoneal macrophages (Gries method); assay type: cell-based, BALB/c mice; settings: LPS 1 μg/ml + IFN-γ 0.1 μg/ml, 24 hours
Method: Next, the inflammatorily exuded peritoneal macrophages were treated with bacterial (E. coli) lipopolysaccharide (LPS) (1 μg/ml) and interferon-γ (0.1 μg/ml) in vitro, then the amount of NO, the inflammatory mediator released from the macrophages, was quantified as NO3^−+NO2^− by a conventional method (Gries method) [Stuehr D J, et al, J. Exp. Med., 169, 1543-55 (1989)] (FIG. 4). That is, to the 6-week old female BALB/c mice (SPF), 10% proteose peptone (1 ml) was injected intraperitoneally. The exuded peritoneal macrophages were collected by peritoneal puncture using a needled syringe, centrifuged in the presence of 10% heat-inactivated fetal calf serum and washed. The peritoneal macrophages (1×10^5/well), LPS (1 μg/ml), interferon-γ (IFN-γ) (0.1 μg/ml) and variable doses of canolol (5, 12.5, 25, 50, 100 μM) were plated in the plastic microplate (96-well) (Sumitomo Bakelite, Cat. #MS-8096F), and allowed to incubate for 24 hours at 37° C., under 5% CO2 and 95% air. Then, nitrite and nitrate ions in the supernatant were quantified by the Gries method. The culture medium used for the macrophages was RPMI-1640 containing 10% of heat-inactivated fetal calf serum. As control groups, LPS alone, and LPS+IFN-γ without canolol were used. The vertical axis of FIG. 4 indicates the total amount of nitrate and nitrite ions.

[10] = test system: peritoneal macrophages; assay: Effect on survival of macrophages; assay type: cell-based, BALB/c mice
[11] = test system: human embryonic kidney epithelial cells HEK 293; assay: Neutralization of peroxynitrite (SIN-1) toxicity to cultured cells, MTT method; assay type: cell-based; settings: SIN-1 100 μM, HEK 293, MTT
Source text: as §1

[12] = test system: Salmonella typhimurium TA102; assay: Suppression of ONOO- induced mutant colony formation (modified Ames medium); assay type: cell-based; settings: 8 μM canolol; ONOO- at or above 4 μM
Method: 1×10^8 CFU of Salmonella typhimurium TA102 was taken into a beaker under sterile condition, then ONOO^− was continuously infused under stirring to make a predetermined concentration of ONOO^− between 1-800 μM. (FIG. 7A). An aliquot of S. typhimurium at each time point was removed to a petri dish containing modified Ames medium which permits selective growth of only mutant strains, and was cultured. […] The mutant colonies were formed progressively at or above 4 μM of ONOO^−, while they were not formed with addition of 8 μM canolol.

[13] = Hp + MNU, number of gerbils, after 57 weeks
[14] = mid-stomach tissue, 0.1% canolol diet

With `Cc1cc(C(C)(C)C)c(O)c(C(C)(C)C)c1` [BHT, 2,6-di-tert-butyl-4-methylphenol] the “Incidence of carcinoma, Frequency (%)” value ([1]; Hp + MNU, after 57 weeks) was “(39.4) %”, the “Incidence of carcinoma, Frequency (gerbils with carcinoma/group)” value ([1]; Hp + MNU, after 57 weeks) was 13/33 and the “Incidence of carcinoma, Differentiation” value [1, 13] was 11. The “Incidence of carcinoma, Undifferentiation” value [1, 13] was 2 and the “Rate of suppression (%)” value ([1]; Hp + MNU, vs group I (Hp + MNU), after 57 weeks) was 6.5%.
`Cl.N=c1c[n+](N2CCOCC2)[n-]o1` [SIN-1, 3-(4-morpholinyl) sydnonimine HCl] showed a half-life [2] of 6 h.
In the case of `C=Cc1cc(OC)c(O)c(OC)c1` [canolol, 4-vinyl-2,6-dimethoxyphenol], the “inflammation of gastric epithelium” value [3] is reported as “markedly suppressed”, the “8-OHdG production in vivo” value [4] is reported as “exerted suppressive activity” and the “Amount of 8-OHdG (ratio)” value [4, 14] is reported as 19.6 ± 5.5 ratio. The antibacterial activity ([5]; in vivo, gerbil stomach) was “did not show any antibacterial activity”, the “H. pylori count (CFU)” value [5, 14] was 4.42 ± 0.2 CFU and the “gastritis in both gastric antrum and corpus” value [6] was “significantly suppressed”. The “Hyperplasia, Gastric antrum” value ([6]; n = 10) was 1.2 ± 0.6, the “Hyperplasia, Gastric corpus” value ([6]; n = 10) was 0.7 ± 0.2 and the “Neutrophil infiltration, Gastric antrum” value ([6]; n = 10) was 1.2 ± 0.4. For the same compound, the “Neutrophil infiltration, Gastric corpus” value ([6]; n = 10) was 0.9 ± 0.2, the “COX-2, Gastric antrum” value [7] was 0.9 ± 0.2 and the “COX-2, Gastric corpus” value [7] was 0.6 ± 0.2. For the same compound, the “iNOS, Gastric antrum” value [8] was 0.9 ± 0.1, the “iNOS, Gastric corpus” value [8] was 0.5 ± 0.1 and the effective concentration [9] was 10 to 100 µM. The “toxicity to macrophages (survival)” value ([10]; at 100 μM) was “essentially non-toxic”, the cytotoxic concentration ([10]; macrophages) was no less than 800 µM and the “concentration that significantly neutralized the toxicity of ONOO-” value [11] was 12.5 to 50 µM. For the same compound, the “suppression of the cancer incidence” value ([1]; 0.1% canolol vs without canolol) was 64%, the cancer incidence ([1]; gerbils fed with 0.1% canolol, around 57 weeks) was 15% and the “mutant colony formation by ONOO-” value [12] was “not formed”.
